“And” between values parts separate entries of the source, which are not always exact repeats. Equal values may be shown once.
How the values were obtained:
[1] = Metabolic stability and metabolite profile in mouse liver microsomes (MLM); format: in vitro ADME; details: after 1 h at 37 °C, 50 μM substrate
Description: Because of the lack of systemic activity of compound 23, we evaluated the in vitro plasmatic and hepatic metabolic stability. To this aim, compound 23 was exposed to mouse plasma and mouse liver microsome (MLM) fractions, and the residual substrate was measured after 1 h. Under these conditions, the residual substrate was about 97% and 90% in plasma and microsomes, respectively, denoting that this molecule suffers from mild hydrolysis of the ester group.
Metabolic biotransformation of compound 23 was investigated by tandem high‐resolution mass spectrometry using the software COMPOUND DISCOVERER 3.2™.
The standard incubation mixture (250 μL final volume) was carried out in a 50 mM Tris (tris[hydroxymethyl]aminomethane) buffer (pH 7.4) containing 150 mM KCl, […], 3.3 mM MgCl2, 1.3 mM NADPNa2, 3.3 mM glucose 6‐phosphate, 0.4 units·mL^−1 glucose 6‐phosphate dehydrogenase, acetonitrile as cosolvent (1% of total volume), and the substrate (50 μM). After pre‐equilibration of the mixture, an appropriate volume of MLM suspension was added to give a final protein concentration of 1.0 mg·mL^−1. The mixture was shaken for 60 min at 37 °C using a horizontal shaking thermostatic bath while protecting the samples from light. Control incubations were carried out without the presence of substrate, or NADPH regenerating system, or microsomes. Each incubation was stopped by the addition of 250 μL of ice‐cold acetonitrile, vortexed, and centrifuged at 13 000 r.p.m. for 5 min [68]. The supernatants were analyzed by LC‐UV and LC‐HRMS equipment (see Tables S1 and S2, Fig. S79 for full parameters setting in the Supporting Information).
The metabolic stability of the compound 23 was determined in vitro by measuring the residual peak area after incubation by LC‐UV analysis. Samples were further processed by LC‐HRMS equipment for metabolite profiling. Raw data files were processed using both XCALIBUR® and COMPOUND DISCOVERER 3.2® software (Thermo Scientific) using a customized workflow for the detection and identification of the expected and unknown metabolites (Fig. S80).

[2] = target: T1, hTRPM8 (Homo sapiens, UniProt Q7Z2W7); assay: Whole-cell patch-clamp of WS-12-evoked currents in HEK293 cells expressing hTRPM8; format: cell-based
T1 construct: expressed in transfected cells; host or cells: HEK293 (transient, Lipofectamine 3000)
T1 sequence (Q7Z2W7 whole entry): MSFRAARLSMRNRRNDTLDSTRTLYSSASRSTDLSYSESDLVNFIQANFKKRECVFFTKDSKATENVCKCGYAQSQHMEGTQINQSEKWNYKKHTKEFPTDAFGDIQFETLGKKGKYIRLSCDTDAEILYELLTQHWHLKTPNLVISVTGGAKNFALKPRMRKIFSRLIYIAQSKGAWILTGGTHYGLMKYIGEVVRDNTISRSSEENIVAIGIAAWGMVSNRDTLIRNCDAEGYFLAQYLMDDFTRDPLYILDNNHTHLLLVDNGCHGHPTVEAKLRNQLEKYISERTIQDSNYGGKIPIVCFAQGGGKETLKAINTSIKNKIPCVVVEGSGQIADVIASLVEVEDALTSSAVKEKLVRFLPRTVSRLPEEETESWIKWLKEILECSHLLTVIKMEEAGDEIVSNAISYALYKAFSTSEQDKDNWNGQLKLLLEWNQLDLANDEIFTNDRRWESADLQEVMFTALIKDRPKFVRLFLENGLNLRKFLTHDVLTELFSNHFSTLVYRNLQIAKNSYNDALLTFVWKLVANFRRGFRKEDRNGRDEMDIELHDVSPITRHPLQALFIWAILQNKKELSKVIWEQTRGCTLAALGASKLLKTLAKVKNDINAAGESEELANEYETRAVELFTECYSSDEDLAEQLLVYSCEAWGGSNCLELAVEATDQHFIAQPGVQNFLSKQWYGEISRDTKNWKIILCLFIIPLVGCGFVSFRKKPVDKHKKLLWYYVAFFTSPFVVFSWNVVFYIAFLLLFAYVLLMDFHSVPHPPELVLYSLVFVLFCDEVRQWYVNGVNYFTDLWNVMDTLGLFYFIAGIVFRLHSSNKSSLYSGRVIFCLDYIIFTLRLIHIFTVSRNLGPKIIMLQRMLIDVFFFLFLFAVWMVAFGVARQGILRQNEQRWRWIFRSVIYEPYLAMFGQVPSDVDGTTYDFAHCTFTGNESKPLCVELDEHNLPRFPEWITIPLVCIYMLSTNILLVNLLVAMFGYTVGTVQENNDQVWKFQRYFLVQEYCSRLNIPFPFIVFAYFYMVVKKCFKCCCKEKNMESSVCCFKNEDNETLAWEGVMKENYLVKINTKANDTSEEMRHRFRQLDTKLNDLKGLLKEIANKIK
Description: We first used patch‐clamp to investigate the potency and blockade mechanism of compound 23 inhibiting WS‐12 evoked ionic currents in hTRPM8‐HEK293 cells. […] This blockade activity was reversible as virtually all WS‐12‐evoked ionic current could be recovered upon washout (Fig. 3A, bottom panel), thus preventing a use‐dependent side effect.
To unveil the underlying mechanism of channel blockade (competitive vs noncompetitive) we evaluated the effect of the α‐acyloxy carboxamide 23 on WS‐12 activating potency. For this purpose, we obtained the WS‐12 dose response in the absence and presence of 80 nM compound 23 (corresponding to its IC50 value).
For this purpose, we run 100 ms voltage ramps from −120 to 120 mV activated by WS‐12 in the absence and presence of 80 nM α‐acyloxy carboxamide 23.
Recording through patch‐clamp techniques was performed on HEK293 cells cultured in DMEM GlutaMax with 10% FBS and 1% P/S. The cell lines were authenticated following the standardization of STR Profiling guidelines (ANSI/ATCC ASN‐0002‐2022) using the CLA Identifier Plus PCR Amplification Kit (Thermo Fisher‐A44660) to analyze 16 highly variant human STRs. The cells were confirmed to be mycoplasma‐free. These cells were transiently transfected with plasmids encoding hTRPV1, hTRPM8, or hTRPA1 using Lipofectamine 3000. Transfected cells were seeded on 12 mm Ø glass coverslips treated with poly‐L‐lysine solution and recorded 2 days post‐transfection. The intracellular pipette solution included (in mM) 150 NaCl, 3 MgCl2, 5 EGTA, and 10 HEPES, pH 7.2 with CsOH, while the extracellular solution contained (in mM) 150 NaCl, 6 CsCl, 1 MgCl2, 1.5 CaCl2, 10 glucose, and 10 HEPES, pH 7.4 with NaOH. An EPC‐10 amplifier with Patchmaster software was used in whole‐cell experiments. Patch pipettes, created from thin‐wall borosilicate capillary glass tubing, were pulled with a Micropipette puller to a final resistance of 2–8 MΩ when filled with the internal solution. Recordings were acquired at 10 kHz and low‐pass filtered at 3 kHz, discarding recordings with leak currents > 200pA or series resistance > 20 MΩ. In voltage‐clamp recordings, cells were held at a constant potential, and the application of modulators was carried out using a gravity‐driven perfusion system. Total currents were normalized to the first current peak evoked by the activating stimuli. To study the effect of compound 23 on TRPM8 voltage dependence, a voltage step protocol from −120 to 120 mV was used with 100 ms steps of 20 mV from a holding potential at 0 mV. Leak currents were not subtracted, and conductance was calculated using the equation: G = I/(V − V r), where I is the measured ionic current, V is the applied voltage, and V r is the reversal potential that for the ionic conditions used was set to 0 mV.
Dose–response relationships for WS‐12 channel activation were normalized to the response of the channel to a saturating concentration of the agonist. Similarly, dose–response curves for blockade activity were normalized with respect to the response in the absence of the blocker. The experimental data were fitted to the Hill equation: Y=Bottom+Top‐Bottom/(1+10^ligand−LogIC50orLogEC50) using PRISM 9 software. Top was fixed to 100, as the unblocked response or the maximal response for WS‐12.

residual substrate in mouse liver microsomes without NADPH regenerating system [1]: ~90%
residual substrate in mouse liver microsomes with NADPH regenerating system ([1]; monooxygenase system activated): about 42%
reduction of WS‐12 evoked inward current ([2]; 1 μM compound, 1 μM WS-12, holding potential −60 mV): ≥ 75%
Schild plot slope ([2]; WS12 vs compound 23 at 0.02, 0.08, 0.1, 0.5 μM): 1.003 and 1.0
reversibility of blockade upon washout ([2]; WS-12-evoked current recovered after washout): reversible
mechanism of channel blockade ([2]; WS-12 dose-response shift and Schild plot): competitive
Hill coefficient of hTRPM8 current blockade ([2]; patch-clamp dose-response, −60 mV): 1
IC50 ([2]; patch-clamp, WS-12 evoked current, −60 mV, N = 3, n = 10, read-out: IC50 of hTRPM8 current blockade): 0.08 ± 0.07 µM
voltage dependency of channel blockade ([2]; voltage steps −120 to 120 mV, 0.08 μM compound 23, 10 μM AMTB): not voltage dependent
Structure (SMILES): O=C(COC(=O)c1ccccc1-c1ccccc1)NC12CC3CC(CC(C3)C1)C2 [Compound 23, 2‐((3S,5S,7S)‐adamantan‐1‐ylamino)‐2‐oxoethyl [1,1′‐biphenyl]‐2‐carboxylate]

From PMC12220852, “An adamantane‐based ligand as a novel chemical tool for thermosensory TRPM8 channel therapeutic modulation” (The Febs Journal, 2025)
